The target of the assay is T1, sodium-proton exchanger of subtype 3 (NHE3) (Homo sapiens, UniProt P48764).
T1 construct: expressed in transfected cells
T1 sequence (P48764 26-834): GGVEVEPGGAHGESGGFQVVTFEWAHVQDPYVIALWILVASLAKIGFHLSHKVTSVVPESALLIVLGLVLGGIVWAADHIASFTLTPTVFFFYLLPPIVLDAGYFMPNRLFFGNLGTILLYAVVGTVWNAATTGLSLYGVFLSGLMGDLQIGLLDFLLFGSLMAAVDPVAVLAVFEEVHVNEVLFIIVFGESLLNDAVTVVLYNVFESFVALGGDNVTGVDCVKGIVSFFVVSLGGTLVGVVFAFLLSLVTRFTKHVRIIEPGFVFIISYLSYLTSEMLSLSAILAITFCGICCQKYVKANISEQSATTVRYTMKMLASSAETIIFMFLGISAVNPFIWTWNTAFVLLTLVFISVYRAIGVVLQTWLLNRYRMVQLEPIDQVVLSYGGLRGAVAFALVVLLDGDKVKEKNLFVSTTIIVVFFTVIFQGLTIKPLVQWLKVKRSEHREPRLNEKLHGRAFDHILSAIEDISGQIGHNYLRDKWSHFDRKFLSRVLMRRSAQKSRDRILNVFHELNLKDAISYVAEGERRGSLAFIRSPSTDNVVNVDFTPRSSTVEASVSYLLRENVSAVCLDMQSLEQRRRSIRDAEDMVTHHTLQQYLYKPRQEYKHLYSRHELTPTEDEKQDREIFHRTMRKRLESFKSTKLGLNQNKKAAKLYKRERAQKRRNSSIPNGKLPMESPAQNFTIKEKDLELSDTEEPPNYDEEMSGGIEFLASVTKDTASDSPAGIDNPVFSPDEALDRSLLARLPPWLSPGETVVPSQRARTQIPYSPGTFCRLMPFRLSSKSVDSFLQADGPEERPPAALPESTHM
The assay is described as follows: Recovery of intracellular pH (pHi) after acidification in LAP1 cells stably expressing NHE3 (BCECF fluorescence, FLIPR). It is filed as cell-based. As to conditions: LAP1 cells stably expressing NHE3; pH recovery after acidification; range 1 is % inhibition at 10 μM; read-out: Activity range (inhibitory effect on NHE3).

Take `N[C@@H]1CCCN([C@H]2CCc3ccccc3[C@@H]2Oc2cccc(OC(F)F)c2)C1` (racemic) [Example 56, (R)-1-[rac-trans-(1,2)-1-(3-difluoromethoxyphenoxy)-1,2,3,4-tetrahydronaphthalen-2-yl]piperidin-3-ylamine]: the inhibition at 10 µM was in the range of 20 to 50%.
For the compound `CS(=O)(=O)c1ccc(OC2c3ccccc3CC2N2CCC[C@@H](N)C2)c(Cl)c1Cl` (mixture of isomers) [Example 31, (R)-1-[rac-trans-(1,2)-1-(2,3-dichloro-4-methanesulfonylphenoxy)indan-2-yl]piperidin-3-ylamine], the IC50 was < 1000 nM.
Consider `NCC1CCN([C@@H]2Cc3ccccc3[C@H]2Oc2cccc(C(N)=O)c2)C1` (mixture of isomers) [Example 414, 3-[rac-trans-(1,2)-2-(3-aminomethylpyrrolidin-1-yl)indan-1-yloxy]benzamide], for which the IC50 was 1000 to 10000 nM.
For `CC(=O)Nc1cccc(O[C@H]2c3ccc(F)cc3C[C@@H]2N2CCCC2)c1` (racemic) [Example 656, N-[3-(rac-trans-(1,2)-5-fluoro-2-pyrrolidin-1-ylindan-1-yloxy)phenyl]acetamide], the IC50 was in the range of 1000 to 10000 nM.
In the case of `N[C@H]1CCCN([C@H]2CCc3ccccc3[C@@H]2Oc2cccc3ncccc23)C1` (racemic) [Example 193, (S)-1-[rac-trans-(1,2)-1-(quinolin-5-yloxy)-1,2,3,4-tetrahydronaphthalen-2-yl]piperidin-3-ylamine], the IC50 was in the range of 1000 to 10000 nM.
Turning to `CC(=O)Nc1cccc(O[C@H]2c3ccccc3C[C@@H]2N2CCNCC2)c1` (racemic) [Example 639, N-[3-(rac-trans-(1,2)-2-piperazin-1-ylindan-1-yloxy)phenyl]acetamide], the inhibition at 10 µM lay within 20 to 50%.
In the case of `Cc1ccc2c(c1)C(Oc1ccc(S(N)(=O)=O)cc1)C(N1CCCC1)C2` (racemic) [Example 475, 4-(rac-trans-(1,2)-6-methyl-2-pyrrolidin-1-ylindan-1-yloxy)benzenesulfonamide], the IC50 lay in the range of 1000 to 10000 nM.
Regarding `N[C@@H]1CCCN([C@H]2CCc3ccccc3[C@@H]2Oc2ccc(NC(=O)OCc3ccccc3)cc2)C1` (racemic) [Example 237, {4-[rac-trans-(1,2)-2-((R)-3-aminopiperidin-1-yl)-1,2,3,4-tetrahydronaphthalen-1-yloxy]phenyl}carbamic acid benzyl ester], the inhibition at 10 µM lay within 20 to 50%.
Consider `NS(=O)(=O)c1ccc(O[C@H]2c3cc(Cl)cc(Cl)c3C[C@@H]2N2CC[C@@H](O)C2)cc1` [Example 743, 4-[trans-(1S,2S)-4,6-Dichloro-2-((R)-3-hydroxy-pyrrolidin-1-yl)-indan-1-yloxy]-benzenesulfonamide], for which the IC50 was < 1000 nM.
Take `Cn1ccn(-c2cc(O[C@H]3c4cc(Cl)cc(Cl)c4C[C@@H]3N3CC[C@@H](O)C3)ccc2F)c1=O` [Example 745, 1-{5-[trans-(1S,2S)-4,6-Dichloro-2-((R)-3-hydroxy-pyrrolidin-1-yl)-indan-1-yloxy]-2-fluoro-phenyl}-3-methyl-1,3-dihydro-imidazol-2-one]: the inhibition at 10 µM fell in the range of 20 to 50%.
For the compound `Cc1ccc(O[C@H]2c3ccccc3CC[C@@H]2N2CCC[C@@H](N)C2)cc1Cl` (racemic) [Example 53, (R)-1-[rac-trans-(1,2)-1-(3-chloro-4-methylphenoxy)-1,2,3,4-tetrahydronaphthalen-2-yl]piperidin-3-ylamine], the inhibition at 10 µM was 20 to 50%.
The same measure, in the same setting: with `N[C@@H]1CCCN([C@H]2CCc3ccccc3[C@@H]2Oc2cnc3ccccc3c2)C1` (racemic) [Example 87, (R)-1-[rac-trans-(1,2)-1-(quinolin-3-yloxy)-1,2,3,4-tetrahydronaphthalen-2-yl]piperidin-3-ylamine] the figure was 20 to 50%.
On to `Cc1nnc(C)n1-c1ccc(O[C@H]2c3cc(Cl)cc(Cl)c3C[C@@H]2NC2CCCC2)c(F)c1` [Example 746, Cyclopentyl-{trans-(1S,2S)-4,6-dichloro-1-[4-(3,5-dimethyl-[1,2,4]triazol-4-yl)-2-fluoro-phenoxy]-indan-2-yl}-amine], for which the IC50 was < 1000 nM.
The same measure, in the same setting: with `NCC1CCN([C@@H]2Cc3ccccc3[C@H]2Oc2ccc(Br)cc2-c2cc[nH]n2)C1` (mixture of isomers) [Example 600, C-(1-{rac-trans-(1,2)-1-[4-bromo-2-(1H-pyrazol-3-yl)phenoxy]indan-2-yl}pyrrolidin-3-yl)methylamine] the figure was 1000 to 10000 nM; with `Cn1ccn(-c2ccc(Cl)c(O[C@H]3c4cc(F)cc(F)c4C[C@@H]3N3CC[C@@H](O)C3)c2)c1=O` [Example 338, 1-{4-chloro-3-[(1S,2S)-4,6-difluoro-2-((R)-3-hydroxypyrrolidin-1-yl)indan-1-yloxy]phenyl}-3-methyl-1,3-dihydroimidazol-2-one], 1000 to 10000 nM.
As to `N[C@H]1CCCN([C@H]2CCc3ccccc3[C@@H]2Oc2cccc(Cl)c2)C1` (racemic) [Example 165, (S)-1-[rac-trans-(1,2)-1-(3-chlorophenoxy)-1,2,3,4-tetrahydronaphthalen-2-yl]piperidin-3-ylamine], the inhibition at 10 µM is 20 to 50%.
Regarding `COc1cc(Cl)cc(O[C@@H]2c3ccccc3C[C@H]2N2CCC(CN)C2)c1` (mixture of isomers) [Example 613, C-{1-[rac-trans-(1,2)-1-(3-chloro-5-methoxyphenoxy)indan-2-yl]pyrrolidin-3-yl}methylamine], the IC50 was in the range of 1000 to 10000 nM.
Turning to `Cc1noc(C)c1-c1cc(O[C@H]2c3ccccc3C[C@@H]2N2CCCC2)ccc1F` [Example 489, 4-[2-fluoro-5-(trans-(1S,2S)-2-pyrrolidin-1-ylindan-1-yloxy)phenyl]-3,5-dimethylisoxazole], the inhibition at 10 µM is 20 to 50%.
As to `COc1cc(Cl)cc(O[C@H]2c3ccccc3CC[C@@H]2N2CCC[C@H](N)C2)c1` (racemic) [Example 163, (S)-1-[rac-trans-(1,2)-1-(3-chloro-5-methoxyphenoxy)-1,2,3,4-tetrahydronaphthalen-2-yl]piperidin-3-ylamine], the IC50 is 1000 to 10000 nM.
On to `COCCc1ccc(O[C@@H]2c3ccccc3C[C@H]2N2CCC[C@@H](N)C2)cc1` (racemic) [Example 116, (R)-1-{rac-trans-(1,2)-1-[4-(2-methoxyethyl)phenoxy]indan-2-yl}piperidin-3-ylamine], for which the IC50 is 1000 to 10000 nM.
Same read-out and setting: with `c1ccc2c(c1)C[C@@H](N1C[C@H]3CNC[C@H]3C1)[C@@H]2Oc1cccc2[nH]ccc12` (racemic) [Example 504, 4-[rac-trans-(1,2)-2-(Hexahydropyrrolo[3,4-c]pyrrol-2-yl)indan-1-yloxy]-1H-indole] the figure was 1000 to 10000 nM; with `N[C@H]1CCCN([C@@H]2Cc3ccccc3[C@H]2Oc2ccc(Br)cc2-c2cc[nH]n2)C1` (racemic) [Example 204, (S)-1-{rac-trans-(1,2)-1-[4-bromo-2-(1H-pyrazol-3-yl)phenoxy]indan-2-yl}piperidin-3-ylamine], 1000 to 10000 nM; with `CS(=O)(=O)c1ccc(O[C@H]2c3cc(Cl)cc(Cl)c3C[C@@H]2NC2CCCC2)cc1` [Example 747, Cyclopentyl-[trans-(1S,2S)-4,6-dichloro-1-(4-methanesulfonyl-phenoxy)-indan-2-yl]-amine], 1000 to 10000 nM.
On to `CN(CCO)[C@H]1Cc2c(Cl)cc(Cl)cc2[C@@H]1Oc1ccc(S(C)(=O)=O)cc1` [Example 702, 2-{[trans-(1S,2S)-4,6-Dichloro-1-(4-methanesulfonyl-phenoxy)-indan-2-yl]-methyl-amino}-ethanol], for which the IC50 is < 1000 nM.
Take `CN1C[C@@H]2CN([C@H]3Cc4c(Cl)cc(Cl)cc4[C@@H]3Oc3ccc(S(C)(=O)=O)cc3)C[C@@H]2C1` [Example 8, 2-[trans-(1S,2S)-4,6-dichloro-1-(4-methanesulfonylphenoxy)indan-2-yl]-5-methyloctahydropyrrolo[3,4-c]pyrrole]: the IC50 was < 1000 nM.
Same read-out and setting: to `Cc1nnc(C)n1-c1ccc(O[C@H]2c3cc(Cl)ccc3C[C@@H]2N2CCCC2)cc1` [Example 502, 4-[4-(trans-(1S,2S)-6-chloro-2-pyrrolidin-1-ylindan-1-yloxy)phenyl]-3,5-dimethyl-4H-[1,2,4]triazole] belongs < 1000 nM.
The same measure, in the same setting: to `CN1CC(=O)N(c2ccc(O[C@H]3c4cc(Cl)cc(Cl)c4C[C@@H]3N3CC[C@@H](O)C3)c(Cl)c2)C1=O` [Example 422, 3-{3-chloro-4-[(1S,2S)-4,6-dichloro-2-((R)-3-hydroxypyrrolidin-1-yl)indan-1-yloxy]phenyl}-1-methylimidazolidine-2,4-dione] belongs < 1000 nM.
Take `Clc1cnccc1O[C@H]1c2ccccc2C[C@@H]1CN1CCOCC1` (racemic) [Example 486, 4-[1-(3-chloropyridin-4-yloxy)indan-2-ylmethyl]morpholine]: the inhibition at 10 µM was 20 to 50%.
The same measure, in the same setting: with `Cc1cc(C)c2cccnc2c1O[C@H]1c2ccccc2CC[C@@H]1N1CCC[C@H](N)C1` (racemic) [Example 187, (S)-1-[rac-trans-(1,2)-1-(5,7-dimethylquinolin-8-yloxy)-1,2,3,4-tetrahydronaphthalen-2-yl]piperidin-3-ylamine] the figure was 20 to 50%.

For the origin of these results see patent publication US8822449B2, “Substituted aminoindanes and analogs thereof, and the pharmaceutical use thereof” (Sanofi, priority 2008, dated 2014).
